The subject of the experiment is dandruff. Briefly: dandruff removal trials, topical application before shampooing. Format: in vivo. Particulars: series of trials on subjects; applied twenty minutes before shampooing. An excerpt:
The author of the present inventions has engaged in research, and experimentation in the field of hair care products for a number of years. As a dandruff treatment, they investigated the use of polysorbate 80, procured from the Nourishair Company in the form of a thick gel. […] Based on this experience, they used the product on a number of subjects over a period of ten years. For antiseptic purposes and tactile response, they subsequently decided to add an amount of menthol to the polysorbate 80.

As for polysorbate 60, the dandruff removal result was “worked well”.

polysorbate 80: the dandruff removal result is “worked well”.

For the origin of these results see patent publication US7041636B1, “Composition for counteracting hair loss” (priority 2004, dated 2006).
